Data set [1] deals with NIH3T3 mouse embryo fibroblasts. Description: MTT assay cytotoxicity. Format: cell-based. To be noted: NIH3T3, 24 hours, read-out: IC50 according to MTT assay. The procedure: (§1) HaCaT human epidermal keratinocytes, # ATCC PCS-200-011) were incubated using Dulbecco's modified Eagle's medium (DMEM, # DMEM-HPA, Capricorn Scientific, Ebsdorfergrund, Germany) in the conditions of 37° C. and 5% CO2. NIH3T3 mouse embryo fibroblasts (# KCLB 21658), RAW264.7 murine macrophages (preosteoclast cell line, # KCLB 40071), HCT116 human colon cancer cells (# KCLB 10247), PC3 human prostate adenocarcinoma cells (# KCLB 21435), HT1080 human fibrosarcoma cells (# KCLB 1121), and B16F10 mouse malignant melanoma cells (# KCLB 80008) were purchased from the Korean Cell Line Bank, and incubated using DMEM in the conditions of 37° C. and 5% C02.
(§2) The compound isolated from Osmunda japonica, prepared in section 1 of <Example 1>, was investigated for cytotoxicity using MTT assay.
(§3) MTT assay was as follows.
(§4) Cells were incubated at 1×10^3 cells/well in a 96-well plate containing DMEM with 10% fetal bovine serum (FBS) at 5% CO2 and 37° C., and then osmundacetone was added to the cell medium, followed by incubation for 24 hours. Thereafter, 100 μL of MTT (0.5 mg/ml PBS) was administered, followed by incubation for 2 hours. […] After incubation for 10 minutes, the absorbance was measured using a microplate reader (SPCTRA MAX 340PC, Molecular Devices, USA) at 570 nm. The absorbance is an indicator showing the number of living cells, and calculated by the following equation. […]

For a further data set, the system named is B16F10 mouse melanoma. The experiment in a line: MTT assay cytotoxicity. The settings on record: B16F10, 24 hours. The class given is cell-based. The procedure:
as §1, §2, §3, §4

For data set [2] the following is noted: US toxic substance regulatory agencies, Not Listed; cited from earlier work.
The test system of data set [3] is A549 human lung carcinoma. The experiment in a line: MTT assay cytotoxicity. Format: cell-based. The settings on record: cancer cell. The protocol:
(§5) AGS human stomach adenocarcinoma cells (# KCLB 21739), A549 human lung carcinoma cells (# KCLB 10185), Caki-1 human kidney carcinoma cells (# KCLB 30046), T24 human bladder carcinoma cells (# KCLB 30004), TC-1 P3 HPV-16E7-expressing mouse pulmonary epithelial cells, MHC class I (provided by Tae-Woo Kim, a professor of Korea University) were incubated using RPMI (Rosewell Park Memorial Institute) 1640 (# RPMI-A, Capricorn Scientific, Ebsdorfergrund, Germany) in the conditions of 37° C. and 5% CO2.
as §2, §3
(§6) Cells were incubated at 1×10^3 cells/well in a 96-well plate containing DMEM with 10% fetal bovine serum (FBS) at 5% CO2 and 37° C., and then osmundacetone was added to the cell medium, followed by incubation for 24 hours. Thereafter, 100 μL of MTT (0.5 mg/ml PBS) was administered, followed by incubation for 2 hours. Thereafter, the medium was removed from each well, and 100 μL of DMSO was added. After incubation for 10 minutes, the absorbance was measured using a microplate reader (SPCTRA MAX 340PC, Molecular Devices, USA) at 570 nm. The absorbance is an indicator showing the number of living cells, and calculated by the following equation. The reproducibility thereof was validated by three experiments. […]

Data set [4] concerns AGS human stomach adenocarcinoma. The experiment in a line: MTT assay cytotoxicity. Format: cell-based. The settings on record: 24 hours. The protocol: as §5, §2, §3, §6
The subject of another data set is normal cell lines. Description: MTT assay cytotoxicity, normal cell lines (summary). Format: cell-based. The protocol: as §2, §3
Cells were incubated at 1×10^3 cells/well in a 96-well plate containing DMEM with 10% fetal bovine serum (FBS) at 5% CO2 and 37° C., and then osmundacetone was added to the cell medium, followed by incubation for 24 hours. Thereafter, 100 μL of MTT (0.5 mg/ml PBS) was administered, followed by incubation for 2 hours. Thereafter, the medium was removed from each well, and 100 μL of DMSO was added. After incubation for 10 minutes, the absorbance was measured using a microplate reader (SPCTRA MAX 340PC, Molecular Devices, USA) at 570 nm. The absorbance is an indicator showing the number of living cells, and calculated by the following equation. The reproducibility thereof was validated by three experiments.
Cell proliferation (%)=OD550(sample)/OD550(control)

A value given as a limit tells only on which side of the number the result lay.

As to `CC(=O)/C=C/c1ccc(O)c(O)c1` [Osmundacetone, (3E)-4-(3,4-dihydroxyphenyl)-3-buten-2-one], the IC50 in data set [1] is > 5 mM. The “LD50 (MTT assay)” value in the data set on B16F10 mouse melanoma came out at 75.8 ± 9.2 µM; in data set [4], 59.9 ± 6.1 µM. Further, in data set [2], the “tests of human toxicity, irritation, carcinogenicity, environmental toxicity” value is “harmless and safe”. Moreover, in data set [3], the “LD50 (μM) Based on MIT Assay” value was >5,000 μM. Besides, the “cell cytotoxicity on normal cell lines” value in the data set on normal cell lines (judged against IC50 of less than 100 μM as active) is “did not show cell cytotoxicity”. Moreover, the “LD50 for normal cell lines” value in the data set with normal cell lines (summary range) is on record as 2,500-5,000 μM.

The record behind these values is patent publication US20200129450A1, “COMPOSITION COMPRISING OSMUNDACETONE OR PHARMACEUTICALLY ACCEPTABLE SALT THEREOF FOR PREVENTING OR TREATING BONE DISEASE” (KORPHARM CO., LTD., priority 2016, published 2020).
